Experimental data from US20090220562A1, “Osteogenic and anti-adipogenic oxysterols” (priority 2005, published 2009).

Key:
Format in all cases: cell-based, mouse
osteocalcin mRNA = assay: Northern blotting for osteocalcin mRNA in M2-10B4 cells; conditions: for induction of osteocalcin gene expression by individual oxysterols: 0.5 to less than 10 μM, as many as 14 days (data not shown)
Description: RNA isolation and Northern blot analysis—Following treatment of cells under appropriate experimental conditions, total RNA was isolated using the RNA isolation kit from Stratagene (La Jolla, Calif., U.S.A.). Total RNA ([…]) was run on a 1% agarose/formaldehyde gel and transferred to Duralon-UV membranes (Strategene, CA, U.S.A.) and cross-linked with UV light. The membranes were hybridized overnight at 60 degree C. with ^32P-labeled mouse osteocalcin cDNA probe, mouse lipoprotein lipase (LPL), mouse adipocyte protein 2 (aP^2) PCR-generated probes, human 28S or 18S rRNA probes obtained from Geneka Biotechnology (Montreal, Quebec, Canada) and Maxim Biotech (San Francisco, Calif., U.S.A.), respectively. The PCR products were generated using primer sets synthesized by Invitrogen (Carlsbad, Calif., U.S.A.) with the following specifications: mouse aP2 gene (accession no. M13261); sense (75-95) 5′-[…]-3′, antisense (362-383) 5′-[…]-3′, generating a PCR product of 309 base pairs. Mouse LPL (accession no. XM—134193); sense (1038-1058) 5′-[…]-3′, antisense (1816-1836) 5′-[…]-3′, generating a PCR product of 799 base pairs. The PCR products were gel-purified and sequenced by the UCLA sequencing core, showing the highest similarity to their respective GenBank entries. Following hybridization, the blots were washed twice at room temperature with 2×SSC+0.1% SDS, and then twice at 60 degree C. with 0.5×SSC+0.1% SDS, and exposed to X-ray film. The extent of gene induction was determined by densitometry.
After 4 and 8 days, total RNA from duplicate samples was isolated and analyzed for osteocalcin (Osc) and 28S rRNA expression by Northern blotting as described. FIG. 3E is a radiogram of Northern blotting for osteocalcin mRNA in M2 cells exposed to a control or combination of oxysterols for 4 or 8 days. FIG. 3F is a bar graph depicting the relative demsometric units of osteocalcin mRNA in M2 cells exposed to a control or combination of oxysterols for 4 -or 8 days. Data from densitometric analysis of the Northern blot is shown in (F) as the average of duplicate samples, normalized to 28S rRNA.
(§1) Next, a combination of 22R and 20S oxysterols (RS, 2.5 μM each) were added in the presence or absence of SC as indicated. After 3 days, ALP activity was measured as described earlier. […] (B) M2 cells were treated as described in (A) and after 10 days matrix mineralization in cultures was quantified by a ^45Ca incorporation assay as described earlier. […] (C) M2 cells were pretreated with 20 μM SC for 4 hours, followed by the addition of RS in the presence or absence of SC as described above. After 8 days, total RNA was isolated and analyzed for osteocalcin (Osc) and […] expression by Northern blotting as previously described. Data from densitometric analysis of the Northern blot is shown in (D) as the average of duplicate samples, normalized to 18S rRNA. (E) M2 cells at confluence were pretreated for 2 hours with control vehicle (C), or PLA2 inhibitors ACA (25 μM) and AACOCF3 (AAC, 20 μM), in osteogenic medium. Next, a combination of 22R and 20S oxysterols (RS, 2.5 μM) was added in the presence or absence of the inhibitors as indicated. After 3 days, ALP activity was measured as previously described. […] (F) M2 cells were treated as described in (E). After 10 days, matrix mineralization in cultures was quantified using a ^45Ca incorporation assay as previously described. Results from a representative of three experiments are shown, reported as the mean of quadruplicate determinations ±SD, normalized to protein concentration (p<0.01 for RS vs. RS+ACA and RS+AAC).
ALP activity was measured after 2 days, as described. […] (B) M2 cells were treated as described in (A). After 10 days, matrix mineralization in cultures was quantified using a ^45Ca incorporation assay as described. […] (C) M2 cells were treated under similar conditions as those described above. […]

[1] = tested on: M2-10B4 marrow stromal cells; assay: Matrix mineralization (45Ca incorporation assay, von Kossa staining) in M2-10B4 marrow stromal cells; conditions: for induction of mineralization by individual oxysterols: 0.5 to less than 10 μM, as many as 14 days (data not shown)
Description: Cells: M2-10B4 mouse marrow stromal cell line obtained from American Type Culture Collection (ATCC, Rockville, Md., U.S.A.) was derived from bone marrow stromal cells of a (C57BL/6J x C3H/HeJ) Fl mouse, and support human and murine myelopoiesis in long-term cultures (as per ATCC) and have the ability to differentiate into osteoblastic and adipocytic cells. Unless specified, these cells were cultured in RPMI 1640 containing 10% heat-inactivated FBS, and supplemented with 1 mM sodium pyruvate, 100 U/ml penicillin, and 100 U/ml streptomycin (all from Irvine Scientific).
Von Kossa and oil red O staining—Matrix mineralization in cell monolayers was detected by silver nitrate staining as previously described. Oil red O staining for detection of adipocytes was performed as previously described.
^45Ca incorporation assay—Matrix mineralization in cell monolayers was quantified using the ^45Ca incorporation assay as previously described.
After 14 days, mineralization was identified by a von Kossa staining, which appears black. FIG. 3C is a depiction of von Kossa staining of M2 cells exposed to various conditions.
After 14 days, matrix mineralization in cultures was quantified using a ^45Ca incorporation assay.
as §1
(A) M2 cells at confluence were pretreated for four hours with RPMI containing 1% FBS, followed by treatment with control vehicle or 5 μM 20S oxysterol for 1, 4, or 8 hours. Next total cell extracts were prepared and analyzed for levels of native or phosphorylated ERK (pERK) using specific antibodies as previously described. Data from a representative of four experiments are shown, each treatment shown in duplicate samples. (B) M2 cells at confluence were pretreated for 2 hours with control vehicle (C) or 20 μM PD98059 (PD) in osteogenic medium as previously described. Next, a combination of 22R and 20S oxysterols (RS, 5 μM each) were added to appropriate wells as indicated. After 10 days of incubation, matrix mineralization was quantified by the ^45Ca incorporation assay as previously described. […] (C) M2 cells at confluence were pretreated for 2 hours with 20 µM PD98059 (PD) in RPMI containing 5% FBS. Next, the cells were treated with control vehicle (C), 10 μM troglitazone (Tro), or 10 μM of 20S or 22S oxysterols, alone or in combination as indicated. After 10 days, adipocytes were visualized by oil Red O staining and quantified by light microscopy as previously described. […]

marrow stromal cells = assay: Osteogenic differentiation of marrow stromal cells (marker not specified: ALP activity, osteocalcin mRNA, mineral formation); conditions: pretreatment and co-treatment; 20S 5-15 μM
Description: The purpose of the study was to identify other osteogenic and anti-adipogenic oxysterols based on the chemical structure of previously identified oxysterols. The ability of such candidate oxysterol molecules to induce the formation of osteoblastic cells in cultures of marrow stromal cells (which are progenitors of osteoblastic cells that make bone) were tested. In order to assess osteogenic differentiation of cells, one or more markers of osteogenic differentiation were measured in untreated cells and cells treated with the test oxysterols. These markers included: alkaline phosphatase activity, osteocalcin mRNA expression and mineral formation in cultures of marrow stromal cells. Activation of either one or more than one marker by a single or combination oxysterols is indicative of their osteogenic property.

Row | SMILES | induction of osteocalcin gene expression by individual oxysterols (osteocalcin mRNA) | osteocalcin mRNA expression (osteocalcin mRNA; doses of 5-15 μM) | induction of mineralization by individual oxysterols [1] | mineralization ([1]; doses of 5-15 μM) | enhancement of 20S-hydroxycholesterol's induction of ALP activity, Runx2 DNA binding and protein expression, osteocalcin mRNA expression and mineralization (marrow stromal cells)
1 | CC(C)CCC[C@](C)(O)[C@H]1CC[C@H]2[C@@H]3CC=C4C[C@@H](O)CC[C@]4(C)[C@H]3CC[C@@]21C [20S-hydroxycholesterol] | unable to induce | induction | unable to induce | induction | –
2 | CC(C)CC[C@@H](O)[C@@H](C)[C@H]1CC[C@H]2[C@@H]3CC=C4C[C@@H](O)CC[C@]4(C)[C@H]3CC[C@]12C [22R-hydroxycholesterol] | unable to induce | – | unable to induce | – | greatly enhanced
3 | CC(C)CC[C@H](O)[C@@H](C)[C@H]1CC[C@H]2[C@@H]3CC=C4C[C@@H](O)CC[C@]4(C)[C@H]3CC[C@]12C [22S-hydroxycholesterol] | unable to induce | – | unable to induce | – | greatly enhanced
